Here are results for 1 compound from patent publication US20140303216A1, “COMPOSITIONS AND METHODS FOR INDUCING DISRUPTION OF BLOOD VASCULATURE AND FOR REDUCING ANGIOGENESIS” (BOARD OF REGENTS, THE UNIVERSITY OF TEXAS SYSTEM, priority 2011, published 2014).

Data set [1] concerns human umbilical vein endothelial cells (HUVECs). The experiment in a line: HUVEC tube formation, in vitro angiogenesis assay. Format: cell-based. The method, then:
Human umbilical vein endothelial cells (HUVECs) were purchased from Clonetics, and were used between passages 4 and 9. HUVECs were cultured on 0.1% gelatin-coated (Sigma) plates in endothelial growth medium-2 (EGM-2; Clonetics) in tissue culture flasks at 37° C. in a humidified atmosphere of 5% CO2. HUVECs (10^4 cells) were seeded in a 96-well plate coated with 50 μl of ECMatrix (Chemicon) or Matrigel (BD Bioscience) according to the manufacturer's instructions. Cells were incubated for 16 h on EGM-2 containing thiabendazole, dissolved in 1% DMSO. Negative control cells were treated with 1% DMSO in the same manner. As a positive control, siRNA versus the human HoxA9 sequence^30 was transfected into HUVECs using Lipofectamine RNAiMAX (Invitrogen) according to the manufacturer's instructions. Tube formation was observed using an inverted microscope (Nikon, eclipse TS100), and branch points were measured using ImageJ software (http://rsb.info.nih.gov/ij).

The next data set deals with HT1080 cells. Nature of the data set: HT1080 cell proliferation in vitro. In kind it is cell-based, human. To be noted: cultured in vitro. The source says: FIG. 21. […] Error bars represent mean±1 s.d. across 14-15 fields of view of 200× magnification confocal microscopy cell images across 2 independent experiments. Scale bar, 100 μm.
The subject of data set [2] is HT1080 human fibrosarcoma xenograft. The experiment in a line: HT1080 human fibrosarcoma xenograft model. In kind it is in vivo, athymic Cre nu/nu mice. To be noted: TBZ 50 mg/kg. The method, then:
Specific pathogen-free athymic Cre Nu/nu mice were purchased from Charles River Laboratories. The HT-1080 human fibrosarcoma cell line was obtained from the American Type Culture Collection (ATCC). HT-1080 cells were cultured in DMEM (Gibco) containing 10% fetal bovine serum (FBS, Gibco) in tissue culture flasks at 37° C. in a humidified atmosphere of 5% CO2. In order to generate a mouse xenograft model, a suspension of the HT-1080 cells (3×10^6 in 50p1 PBS) mixed with an equal volume of Matrigel (BD Bioscience) was subcutaneously implanted into the flank region of 7-8 week old female mice. Upon establishment of tumors (approx. 40 mm^3), mice were given intraperitoneal injections of 1 mg thiabendazole (Sigma-Aldrich), suspended in 20 μl 100% DMSO. As a control, an equal volume of DMSO was injected in the same manner. Tumor growth was monitored by measuring the length and width of each tumor using digital calipers, and the tumor volume in mm^3 calculated by the formula: Volume=(width)^2×length/2. Upon a tumor reaching the maximum size permitted by the Institutional Animal Care and Use Committee (1.5 cm in diameter), the mouse was sacrificed, and the tumor excised. […] Control cells received 1% DMSO.
On the technique in general: In xenograft studies the graft and the host belong to different species.

In a further data set the test system is VEGF. The experiment in a line: VEGF levels in HT1080 cells (Western blotting, ELISA). In kind it is cell-based, human. To be noted: 250 μM TBZ, 24 hours. Here is the method: Cells were lysed in cell lysis buffer (Cell Signaling Technology) containing 1 mM PMSF, and analyzed by SDS-PAGE and western blotting using anti-VEGF (Santa Cruz, A-20) or anti-GAPDH (Cell Signaling Technology) antibodies. The secreted VEGF level in culture media was determined by enzyme-linked immunosorbent assay (ELISA; R&D) according to the manufacturer's instructions.

Data set [3] deals with developing Xenopus embryos. The experiment in a line: Ectopic angiogenesis stimulated by VEGF-soaked beads implanted into Xenopus embryos. Format: in vivo, Xenopus laevis. Here is the method: FIG. 12. TBZ inhibits ectopic angiogenesis (note the doubled PCV in the left panel) stimulated by Affy-gel blue beads (75-150 μm diameter, indicated by white arrowheads) pre-soaked with 0.7 mg/ml vascular endothelial growth factor (VEGF) and microsurgically implanted into developing Xenopus embryos, assaying for the vasculature by ISH versus erg or apinr (showing data for erg). 6 of 8 control animals developed ectopic PCV or VV, as opposed to 0 of 9 TBZ-dosed animals (p value=0.0023).
Female adult Xenopus were ovulated by injections of human chorionic gonadotropin, and eggs were fertilized in vitro and dejellied in 3% cysteine (pH 7.9) and subsequently reared in ⅓×Marc's modified Ringer's (MMR) solution. For microinjections, embryos were placed in a solution of 2% Ficoll in ⅓×MMR solution, injected using forceps and an Oxford universal manipulator, reared in 2% Ficoll in ⅓×MMR to stage 9, then washed and reared in ⅓×MMR solution alone. For bilateral rab11b knock-down experiments, the posterior cardinal vein and intersomitic veins were targeted by injecting Morpholino antisense oligonucleotides (MOs) into the two ventral cells equatorially at the four-cell stage. For unilateral knockdown, only one ventral cell was injected. MOs were injected at 40 ng per blastomere. […]

The subject of another data set is HUVECs. The experiment in a line: HUVEC wound scratch cell migration assay. In kind it is cell-based, human. To be noted: 250 μM TBZ, 15 h. Here is the method:
HUVECs (1.2×10^5 cells) were seeded into 24-well plate for 24 h, and the monolayers were wounded identically. Then, cells were washed with PBS and treated with EBM-2 containing 1% DMSO or 250 μM TBZ dissolved in 1% DMSO with combination of Y27632 or GGPP (Sigma). In the case of Y27632 treatment, cells were preincubated for 2 h before wounding. Cells were photographed at time zero and after 15 h, and the ratios of cell free area [(0 h-15 h)/0 h] were calculated.

The conditions of data set [4]: rats; cited from earlier work.

Turning to `c1ccc2[nH]c(-c3cscn3)nc2c1` [TBZ, 4-(1H-1,3-benzodiazol-2-yl)-1,3-thiazole], the “angiogenesis (tube formation) in HUVECs” value in data set [1] (100 and 250 μM TBZ in 1% DMSO, 16 h) is “inhibited angiogenesis in a dose-dependent manner”. Further, the “concentration at which angiogenesis inhibition was observed” value in data set [1] (human cells in vitro) is 100 to 250 µM. The “rate of proliferation in HT1080 cells” value with HT1080 cells is recorded as “did not alter”. Moreover, the “tumor microvessel density in xenografts (CD31 staining)” value in data set [2] was “significantly impair”. In data set [2] (intraperitoneal, 27 d), the “xenograft growth, time course of tumor size and final tumor mass” value is on record as “significantly slowed”. Further, in the data set with VEGF, the “level of VEGF expressed by HT1080 cells (Western blotting)” value is “did not alter” and the “level of VEGF secreted by HT1080 cells (ELISA)” value is “did not alter”. Besides, the “animals that developed ectopic PCV or VV” value in data set [3] (beads soaked with 0.7 mg/ml VEGF, control 6 of 8, p value=0.0023) is 0 of 9. In addition, the “ectopic angiogenesis induced by ectopic VEGF” value in data set [3] (frog embryos) is recorded as “blocked”. In the data set with HUVECs, the “endothelial cell migration in scratch wound assay” value is on record as “significantly slowed”. For the same compound, the effect on fertility result in data set [4] is “does not appear to affect fertility”.
